Assay results from patent publication US12590106B2, “Spiromacrocyclic orexin 2 receptor agonists” (H. Lundbeck A/S, priority 2023, dated 2026).
pEC50: −log10 of the molar value.

Molecular target: T1, human Ox2R (Homo sapiens, UniProt O43614)
T1 construct: The gene encoding hOx2R was subcloned into the expression plasmid pcDNA5/FRT/TO; expressed in transfected cells; host or cells: CHO Flp-In cells (pcDNA5/FRT/TO with pOG44 Flp recombinase vector, hygromycin B selection)
T1 sequence (O43614 1-444): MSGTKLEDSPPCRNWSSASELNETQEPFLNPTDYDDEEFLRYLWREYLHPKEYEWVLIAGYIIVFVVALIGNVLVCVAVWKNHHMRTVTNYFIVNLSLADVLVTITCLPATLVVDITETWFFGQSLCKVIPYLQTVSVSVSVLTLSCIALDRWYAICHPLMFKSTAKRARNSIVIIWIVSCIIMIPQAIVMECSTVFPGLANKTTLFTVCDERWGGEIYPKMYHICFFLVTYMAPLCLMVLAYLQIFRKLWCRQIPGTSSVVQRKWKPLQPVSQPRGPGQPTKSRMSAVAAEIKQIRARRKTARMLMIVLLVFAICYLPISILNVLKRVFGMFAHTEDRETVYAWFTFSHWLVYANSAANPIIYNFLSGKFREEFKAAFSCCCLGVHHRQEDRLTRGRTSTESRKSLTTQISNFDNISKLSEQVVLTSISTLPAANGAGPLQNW
Assay: Measurement of OX2R agonist activity (cell-based calcium release assay)
Settings: hOx2R-CHO Flp-In cells, n≥2 tests; for pEC50: intracellular calcium, read-out: EC50; for Emax: read-out: Emax (%)
From the text: Measurement of OX2R Agonist Activity
The Ox2R has a broad signaling profile and couple to a range of different Gα-proteins. The cell-based calcium release assay is primarily assessing signaling through the Gαq signaling pathway, which promotes calcium mobilization via inositol triphosphate production upon activation of Ox2R.
A CHO Flp-In cell-line stably expressing the human Ox2R (hOx2R-CHO Flp-In) was established as follows: The gene encoding hOx2R was subcloned into the expression plasmid pcDNA5/FRT/TO and then transfected into CHO Flp-In cells together with the Flp recombinase vector, pOG44. Cells were cultured in growth medium: Ham's F12 (Gibco), 10% fetal bovine serum (Gibco) and 100 U/mL penicillin-streptomycin (Gibco) supplemented with hygromycin B (Thermo Fisher Scientific) as selection marker at 37° C. in the presence of 5% CO2.
To prepare the hOx2R-CHO FlpIn cells for calcium release assay, the cells were suspended in growth medium and seeded in black, clear-bottomed 384-well plates (Corning) at 10,000 cells/well. The plated cells were grown overnight at 37° C. and 5% CO2. The following day, the media was removed, and the cells were incubated with assay buffer (HBSS with 20 mM HEPES, pH 7.4) containing 2.5 mM probenecid (Thermo Fisher Scientific), 10 mM CaCl2, 0.1% pluronic F68 (Gibco) and 1× calcium-4 dye (Molecular Devices) for 1 h at 37° C. and 5% CO2. After incubation, cells were allowed to equilibrate at room temperature for 15 minutes and then loaded into FDSS7000Ex system (Hamamatsu Photonics) together with a plate containing test compounds serially diluted in assay buffer. Cells were stimulated with test compounds (online injection) and the agonist activity was determined as an increase in intracellular calcium concentration measured from the ratio of fluorescence emission at 542 nm by excitation at 480 nm. The agonist response for each applied concentration was assessed as the ratio: maximum fluorescence/average pre-stimulated fluorescence and was normalized to responses from assay buffer alone (0% response) and 10 μM Danavorexton (100% response). EC50 and Emax values were calculated from concentration-response curves by using Genedata Screener software.

[1] = normalized to assay buffer (0%) and 10 μM Danavorexton (100%)

| Compound | pEC50 | Emax [1] | Emax (%) [1] |
| --- | --- | --- | --- |
| CS(=O)(=O)N[C@H]1CC[C@@]2(Cc3cccc(c3)-c3cccnc3NCc3coc2n3)C1 [Example 74, N-[(1′S,14R)-spiro[12-oxa-6,8,21-triazatetracyclo[14.3.1.110,13.02,7]henicosa-1(20),2,4,6,10,13(21),16,18-octaene-14,3′-cyclopentane]-1′-yl]methanesulfonamide] | 7.04 | 100% |  |
| CS(=O)(=O)N[C@H]1CC[C@@]2(CO[C@H]3C[C@H](C3)c3ccccc3OCc3coc2n3)C1 [Example 72, N-[(1′S,10r,12s,15S)-spiro[3,13,17-trioxa-19-azatetracyclo[14.2.1.110,12.04,9]icosa-1(18),4,6,8,16(19)-pentaene-15,3′-cyclopentane]-1′-yl]methanesulfonamide] | 6.72 | 97% |  |
| CS(=O)(=O)N[C@H]1CC[C@@]2(Cc3cc(ccc3F)-c3cccc(Cl)c3OCc3coc2n3)C1 [Example 29, N-[(1′S,14R)-6-chloro-17-fluoro-spiro[8,12-dioxa-21-azatetracyclo[14.3.1.110,13.02,7]henicosa-1(19),2,4,6,10,13(21),16(20),17-octaene-14,3′-cyclopentane]-1′-yl]methanesulfonamide] | 8.70 | 98% |  |
| Cn1cc2c(n1)OCc1coc(n1)[C@]1(CC[C@H](NS(C)(=O)=O)C1)Cc1cc-2c(F)cc1F [Example 83, N-[(1′S,13R)-16,18-difluoro-4-methyl-spiro[7,11-dioxa-4,5,20-triazatetracyclo[13.3.1.19,12.02,6]icosa-1(18),2,5,9,12(20),15(19),16-heptaene-13,3′-cyclopentane]-1′-yl]methanesulfonamide] | 8.59 | 100% |  |
| CS(=O)(=O)N[C@H]1CC[C@@]2(Cc3cccc(c3)-c3cccc(c3)OCc3ccnc2n3)C1 [Example 86, N-[(1′S,14R)-spiro[7-oxa-12,21-diazatetracyclo[14.3.1.12,6.19,13]docosa-1(20),2,4,6(22),9,11,13(21),16,18-nonaene-14,3′-cyclopentane]-1′-yl]methanesulfonamide] | 7.05 | 100% |  |
| CS(=O)(=O)N[C@H]1CC[C@@]2(Cc3cc(c(F)cc3F)-c3ccccc3OCc3coc2n3)C1 [Example 18, N-[(1′S,14R)-17,19-difluorospiro[8,12-dioxa-21-azatetracyclo[14.3.1.110,13.02,7]henicosa-1(19),2,4,6,10,13(21),16(20),17-octaene-14,3′-cyclopentane]-1′-yl]methanesulfonamide] | 9.72 | 95% |  |
| CS(=O)(=O)N[C@H]1CC[C@@]2(COCCCc3cccc(c3)OCc3coc2n3)C1 [Example 67, N-[(1S,8S)-spiro[2,6,10-trioxa-19-azatricyclo[12.3.1.14,7]nonadeca-1(18),4,7(19),14,16-pentaene-8,3′-cyclopentane]-1′-yl]methanesulfonamide] | 5.92 | 94% |  |
| CS(=O)(=O)N[C@H]1CC[C@@]2(Cc3cccc(c3)-c3cccc(c3)OCc3coc2n3)C1 [Example 48, N-[(1′S,13R)-spiro[7,11-dioxa-20-azatetracyclo[13.3.1.12,6.19,12]henicosa-1(19),2,4,6(21),9,12(20),15,17-octaene-13,3′-cyclopentane]-1′-yl]methanesulfonamide] | 7.82 | 95% |  |

Further lines, results first:

| pEC50 | Emax [1] | Emax (%) [1] | Compound |
| --- | --- | --- | --- |
| 7.80 | 110% |  | CS(=O)(=O)N[C@H]1CC[C@@]2(Cc3ccc(F)c(c3)-c3ccc(F)cc3OCc3ccnc2n3)C1 [Example 92, N-[(1′S,15R)-5,20-difluorospiro[8-oxa-13,22-diazatetracyclo[15.3.1.110,14.02,7]docosa-1(20),2,4,6,10,12,14(22),17(21),18-nonaene-15,3′-cyclopentane]-1′-yl]methanesulfonamide] |
| 8.96 | 96% |  | Cc1cccc2c1OCc1coc(n1)[C@]1(CC[C@H](NS(C)(=O)=O)C1)Cc1ccc(F)c-2c1 [Example 37, N-[(1′S,14R)-19-fluoro-6-methyl-spiro[8,12-dioxa-21-azatetracyclo[14.3.1.110,13.02,7]henicosa-1(19),2,4,6,10,13(21),16(20),17-octaene-14,3′-cyclopentane]-1′-yl]methanesulfonamide] |
| 8.09 | 98% |  | CS(=O)(=O)N[C@H]1CC[C@@]2(Cc3ccc(F)c(c3)-c3ccc(F)cc3OCc3coc2n3)C1 [Example 15, N-[(1′S,14R)-5,19-difluorospiro[8,12-dioxa-21-azatetracyclo[14.3.1.110,13.02,7]henicosa-1(19),2,4,6,10,13(21),16(20),17-octaene-14,3′-cyclopentane]-1′-yl]methanesulfonamide] |
| 10.00 | 97% |  | O=S(=O)(N[C@H]1CC[C@@]2(Cc3ccc(F)c(c3)-c3cccc(F)c3OCc3coc2n3)C1)C1CC1 [Example 33, N-[(1′S,14R)-6,19-difluorospiro[8,12-dioxa-21-azatetracyclo[14.3.1.110,13.02,7]henicosa-1(19),2,4,6,10,13(21),16(20),17-octaene-14,3′-cyclopentane]-1′-yl]cyclopropanesulfonamide] |
| 9.01 | 99% |  | C[C@@H]1Oc2c(F)cccc2-c2cc(ccc2F)C[C@@]2(CC[C@H](NS(C)(=O)=O)C2)c2nc1co2 [Example 3, N-[(1′S,9S,14R)-6,19-difluoro-9-methyl-spiro[8,12-dioxa-21-azatetracyclo[14.3.1.110,13.02,7]henicosa-1(19),2(7),3,5,10,13(21),16(20),17-octaene-14,3′-cyclopentane]-1′-yl]methanesulfonamide] |
| 9.28 | 96% |  | CS(=O)(=O)N[C@@H]1C[C@]2(Cc3ccc(F)c(c3)-c3cc(F)cc(F)c3OCc3ccnc2n3)[C@H]2C[C@@H]12 [Example 119, N-[(1′R,2′R,5′S,15R)-4,6,20-trifluorospiro[8-oxa-13,22-diazatetracyclo[15.3.1.110,14.02,7]docosa-1(21),2,4,6,10,12,14(22),17,19-nonaene-15,4′-bicyclo[3.1.0]hexane]-2′-yl]methanesulfonamide] |
| 7.59 | 98% |  | CS(=O)(=O)N[C@H]1CC[C@@]2(Cc3cc(c(F)cn3)-c3cccc(F)c3OCc3coc2n3)C1 [Example 106, N-[(1′S,14S)-6,19-difluorospiro[8,12-dioxa-17,21-diazatetracyclo[14.3.1.110,13.02,7]henicosa-1(20),2,4,6,10,13(21),16,18-octaene-14,3′-cyclopentane]-1′-yl]methanesulfonamide] |
| 8.48 | 96% |  | CS(=O)(=O)N[C@@H]1CC[C@]2(Cc3ccc(F)c(c3)-c3cccc(F)c3OCc3coc2n3)C1 [Example 99, N-[(1′R,14S)-6,19-difluorospiro[8,12-dioxa-21-azatetracyclo[14.3.1.110,13.02,7]henicosa-1(19),2,4,6,10,13(21),16(20),17-octaene-14,3′-cyclopentane]-1′-yl]methanesulfonamide] |
| 9.77 |  | 95% | CS(=O)(=O)NC1CCC2(C1)c1nc(co1)COc1c(F)cccc1-c1cc(ccc1F)C2F (single isomer, unassigned) [Example 78, N-[(1′S,14R,15S or 15R)-6,15,19-trifluorospiro[8,12-dioxa-21-azatetracyclo[14.3.1.110,13.02,7]henicosa-1(19),2,4,6,10,13(21),16(20),17-octaene-14,3′-cyclopentane]-1′-yl]methanesulfonamide] |
